Results reported in article PMC5218480 (PLoS ONE, 2017).

Tested on: MV-4-11 cells
Assay: Gene expression microarray analysis (Affymetrix PrimeView) and GSEA
Format: cell-based, human
Parameters: RFU PODN (11730768_x_at) / Fold change /veh PODN (11730768_x_at) / RFU LINC00158 (11744669_a_at) / Fold change /veh LINC00158 (11744669_a_at) / RFU DUSP10 (11751237_a_at) / Fold change /veh DUSP10 (11751237_a_at) / RFU ID3 (11757404_x_at) / Fold change /veh ID3 (11757404_x_at) / RFU PLEKHG5 (11737974_s_at) / Fold change /veh PLEKHG5 (11737974_s_at) / RFU LRRC4B (11730491_at) / Fold change /veh LRRC4B (11730491_at) / RFU GIMAP4 (11747438_a_at) / Fold change /veh GIMAP4 (11747438_a_at) / RFU KRT8 (11758183_x_at) / Fold change /veh KRT8 (11758183_x_at) / RFU CNN1 (11734310_a_at) / Fold change /veh CNN1 (11734310_a_at) / RFU VPS37D (11726825_at) / Fold change /veh VPS37D (11726825_at) / RFU C10orf10 (11716522_x_at) / Fold change /veh C10orf10 (11716522_x_at) / RFU KIR2DL2 /// KIR2DL4 /// KIR2DL5A /// KIR2DL5B /// KIR2DS1 /// KIR2DS2 /// KIR2DS3 /// KIR2DS4 /// KIR3DL3 /// KIR3DL3 /// KIR3DS1 (11738374_at) / Fold change /veh KIR2DL2 /// KIR2DL4 /// KIR2DL5A /// KIR2DL5B /// KIR2DS1 /// KIR2DS2 /// KIR2DS3 /// KIR2DS4 /// KIR3DL3 /// KIR3DL3 /// KIR3DS1 (11738374_at) / RFU C1QL1 (11718748_at) / Fold change /veh C1QL1 (11718748_at) / RFU TMPRSS4 (11747572_a_at) / Fold change /veh TMPRSS4 (11747572_a_at) / RFU HAMP (11756126_x_at) / Fold change /veh HAMP (11756126_x_at) / RFU RNFT2 (11725882_a_at) / Fold change /veh RNFT2 (11725882_a_at) / RFU NR4A2 (11747474_a_at) / Fold change /veh NR4A2 (11747474_a_at) / RFU ABCC12 (11746883_a_at) / Fold change /veh ABCC12 (11746883_a_at) / RFU TMEM136 (11760407_x_at) / Fold change /veh TMEM136 (11760407_x_at) / RFU CLDN22 /// WWC2 (11732394_at) / Fold change /veh CLDN22 /// WWC2 (11732394_at) / RFU HLA-DPB1 (11760878_x_at) / Fold change /veh HLA-DPB1 (11760878_x_at) / RFU SPINT1 (11716480_a_at) / Fold change /veh SPINT1 (11716480_a_at) / RFU GAP43 (11754022_s_at) / Fold change /veh GAP43 (11754022_s_at) / RFU A4GNT (11735810_at) / Fold change /veh A4GNT (11735810_at) / RFU PRB3 (11715151_x_at) / Fold change /veh PRB3 (11715151_x_at) / RFU TUBB4B (11761932_at) / Fold change /veh TUBB4B (11761932_at) / RFU CAPN14 (11732068_a_at) / Fold change /veh CAPN14 (11732068_a_at) / RFU TMCC2 (11721928_a_at) / Fold change /veh TMCC2 (11721928_a_at) / RFU IRGQ (11745062_a_at) / Fold change /veh IRGQ (11745062_a_at) / RFU FAM174B (11720279_a_at) / Fold change /veh FAM174B (11720279_a_at) / RFU TMPRSS4 (11748680_a_at) / Fold change /veh TMPRSS4 (11748680_a_at) / RFU FAM212B (11763350_a_at) / Fold change /veh FAM212B (11763350_a_at) / RFU PLEKHG5 (11743358_a_at) / Fold change /veh PLEKHG5 (11743358_a_at) / RFU ZSCAN30 (11745921_a_at) / Fold change /veh ZSCAN30 (11745921_a_at) / RFU CMKLR1 (11741424_a_at) / Fold change /veh CMKLR1 (11741424_a_at) / RFU LOC101060620 /// MAPK8IP1 (11723275_at) / Fold change /veh LOC101060620 /// MAPK8IP1 (11723275_at) / RFU SPTSSB (11747773_x_at) / Fold change /veh SPTSSB (11747773_x_at) / RFU PRSS12 (11739890_at) / Fold change /veh PRSS12 (11739890_at) / RFU BIN1 (11741810_x_at) / Fold change /veh BIN1 (11741810_x_at) / RFU WNT11 (11732464_a_at) / Fold change /veh WNT11 (11732464_a_at) / RFU C10orf10 (11716521_a_at) / Fold change /veh C10orf10 (11716521_a_at) / RFU C5orf56 (11738089_at) / Fold change /veh C5orf56 (11738089_at) / RFU CYB561 (11721691_x_at) / Fold change /veh CYB561 (11721691_x_at) / RFU ANKRD19P (11752326_a_at) / Fold change /veh ANKRD19P (11752326_a_at) / RFU OR2T12 /// OR2T33 /// OR2T8 (11738714_s_at) / Fold change /veh OR2T12 /// OR2T33 /// OR2T8 (11738714_s_at) / RFU VCAN (11748164_a_at) / Fold change /veh VCAN (11748164_a_at) / RFU JSRP1 (11732532_at) / Fold change /veh JSRP1 (11732532_at) / RFU KRTAP10-11 (11738290_x_at) / Fold change /veh KRTAP10-11 (11738290_x_at) / RFU MYO3A (11730013_a_at) / Fold change /veh MYO3A (11730013_a_at) / RFU EBF3 (11725865_a_at) / Fold change /veh EBF3 (11725865_a_at) / RFU CAMK2N1 (11719241_x_at) / Fold change /veh CAMK2N1 (11719241_x_at) / RFU C5orf56 (11738088_a_at) / Fold change /veh C5orf56 (11738088_a_at) / RFU OLFML3 (11715873_a_at) / Fold change /veh OLFML3 (11715873_a_at) / RFU LOC100653217 /// NTM (11731650_a_at) / Fold change /veh LOC100653217 /// NTM (11731650_a_at) / RFU MAPK11 (11762145_a_at) / Fold change /veh MAPK11 (11762145_a_at) / RFU FIZ1 (11724087_x_at) / Fold change /veh FIZ1 (11724087_x_at) / RFU OASL (11726364_x_at) / Fold change /veh OASL (11726364_x_at) / RFU SOX15 (11748057_x_at) / Fold change /veh SOX15 (11748057_x_at) / RFU CD79A (11719716_a_at) / Fold change /veh CD79A (11719716_a_at) / RFU HIST1H1D (11736915_at) / Fold change /veh HIST1H1D (11736915_at) / RFU CASKIN2 (11723855_a_at) / Fold change /veh CASKIN2 (11723855_a_at) / RFU LOC730098 (11760151_x_at) / Fold change /veh LOC730098 (11760151_x_at) / RFU OR4N2 (11742367_at) / Fold change /veh OR4N2 (11742367_at) / RFU PRRT2 (11749266_a_at) / Fold change /veh PRRT2 (11749266_a_at) / RFU SNX32 (11753110_a_at) / Fold change /veh SNX32 (11753110_a_at) / RFU CDHR5 (11726645_a_at) / Fold change /veh CDHR5 (11726645_a_at) / RFU RCAN1 (11760418_a_at) / Fold change /veh RCAN1 (11760418_a_at) / RFU FAM167A (11723789_a_at) / Fold change /veh FAM167A (11723789_a_at) / RFU FAM26E (11764081_at) / Fold change /veh FAM26E (11764081_at) / RFU ISYNA1 (11749810_s_at) / Fold change /veh ISYNA1 (11749810_s_at) / RFU ACY1 (11761880_at) / Fold change /veh ACY1 (11761880_at) / RFU 11764098_at / Fold change /veh 11764098_at / RFU SAMD14 (11745864_x_at) / Fold change /veh SAMD14 (11745864_x_at) / RFU NPB (11741838_a_at) / Fold change /veh NPB (11741838_a_at) / RFU TMPRSS6 (11731388_a_at) / Fold change /veh TMPRSS6 (11731388_a_at) / RFU KRTAP10-2 (11738614_at) / Fold change /veh KRTAP10-2 (11738614_at) / RFU ARHGAP8 /// PRR5-ARHGAP8 (11727945_x_at) / Fold change /veh ARHGAP8 /// PRR5-ARHGAP8 (11727945_x_at) / RFU KRTAP5-7 /// NADSYN1 (11734609_at) / Fold change /veh KRTAP5-7 /// NADSYN1 (11734609_at) / RFU RASL12 (11751679_a_at) / Fold change /veh RASL12 (11751679_a_at) / RFU CDKN2B (11736163_a_at) / Fold change /veh CDKN2B (11736163_a_at) / RFU PRF1 (11729649_at) / Fold change /veh PRF1 (11729649_at) / RFU, ZNF638 /// ZNF638-IT1 / Fold change vs veh, ZNF638 /// ZNF638-IT1 / RFU, PANK3 / Fold change vs veh, PANK3 / RFU, SH3YL1 / Fold change vs veh, SH3YL1 / RFU, ZEB2 / Fold change vs veh, ZEB2 / RFU, NRIP1 / Fold change vs veh, NRIP1 / RFU, PTTG1IP / Fold change vs veh, PTTG1IP / RFU, CAPN2 / Fold change vs veh, CAPN2 / RFU, MED14 / Fold change vs veh, MED14 / RFU, SNORA58 / Fold change vs veh, SNORA58 / RFU, C1orf63 / Fold change vs veh, C1orf63 / RFU, LRRFIP1 / Fold change vs veh, LRRFIP1 / RFU, NDUFAF7 / Fold change vs veh, NDUFAF7 / RFU, SLC12A2 / Fold change vs veh, SLC12A2 / RFU, IBTK / Fold change vs veh, IBTK / RFU, ESF1 / Fold change vs veh, ESF1 / Fold change vs veh, TMEM50B / RFU, TAOK1 / Fold change vs veh, TAOK1 / RFU, ACBD3 / Fold change vs veh, ACBD3 / RFU, TMA16 / Fold change vs veh, TMA16 / RFU, RWDD3 / Fold change vs veh, RWDD3 / RFU, BCAT1 / Fold change vs veh, BCAT1 / RFU, EDEM3 / Fold change vs veh, EDEM3 / RFU, TMEM33 / Fold change vs veh, TMEM33 / RFU, WDR75 / Fold change vs veh, WDR75 / RFU, AHCTF1 / Fold change vs veh, AHCTF1 / RFU, TFRC / Fold change vs veh, TFRC / RFU, ZDHHC17 / Fold change vs veh, ZDHHC17 / RFU, NOM1 / Fold change vs veh, NOM1 / RFU, ARL8B / Fold change vs veh, ARL8B / RFU, ZBTB11 / Fold change vs veh, ZBTB11 / RFU, TAMM41 / Fold change vs veh, TAMM41 / RFU, KIAA1704 /// LOC100996395 / Fold change vs veh, KIAA1704 /// LOC100996395 / RFU, ING1 / Fold change vs veh, ING1 / RFU, TRMT61B / Fold change vs veh, TRMT61B / RFU, FUBP3 / Fold change vs veh, FUBP3 / RFU, TP53 / Fold change vs veh, TP53 / RFU, TNKS2 / Fold change vs veh, TNKS2 / RFU, ZFP14 / Fold change vs veh, ZFP14 / RFU, ACTR2 / Fold change vs veh, ACTR2 / RFU, PPP3R1 / Fold change vs veh, PPP3R1 / RFU, PIK3R1 / Fold change vs veh, PIK3R1 / RFU, HNRNPA1 / Fold change vs veh, HNRNPA1 / RFU, RNF170 / Fold change vs veh, RNF170 / RFU, ZNF28 / Fold change vs veh, ZNF28 / RFU, RNGTT / Fold change vs veh, RNGTT / RFU, OGT / Fold change vs veh, OGT / RFU, BRD1 / Fold change vs veh, BRD1 / RFU, MARS / Fold change vs veh, MARS / RFU, ZNF655 / Fold change vs veh, ZNF655 / RFU, FAHD1 / Fold change vs veh, FAHD1 / RFU, BDP1 / Fold change vs veh, BDP1 / RFU, LRRCC1 / Fold change vs veh, LRRCC1 / RFU, ARID1A / Fold change vs veh, ARID1A / RFU, ZNF146 / Fold change vs veh, ZNF146 / RFU, ZNF330 / Fold change vs veh, ZNF330 / RFU, GPN3 / Fold change vs veh, GPN3 / RFU, C9orf123 / Fold change vs veh, C9orf123 / RFU, N4BP2L2 / Fold change vs veh, N4BP2L2 / RFU, ARFIP1 / Fold change vs veh, ARFIP1 / RFU, FAM179B / Fold change vs veh, FAM179B / RFU, BCL10 / Fold change vs veh, BCL10 / RFU, UHRF1BP1L / Fold change vs veh, UHRF1BP1L / RFU, BET1 / Fold change vs veh, BET1 / RFU, CNOT2 / Fold change vs veh, CNOT2 / RFU, ZNF268 / Fold change vs veh, ZNF268 / Fold change vs veh, ZNF507 / RFU, DGCR2 / Fold change vs veh, DGCR2 / RFU, WDSUB1 / Fold change vs veh, WDSUB1 / Fold change vs veh, HSP90B1 /// MIR3652 / RFU, ADSS / Fold change vs veh, ADSS / RFU, GK / Fold change vs veh, GK / RFU, ZNF148 / Fold change vs veh, ZNF148 / RFU, TAF9 / Fold change vs veh, TAF9 / RFU, SLC1A5 / Fold change vs veh, SLC1A5 / RFU, SLMO2 / Fold change vs veh, SLMO2 / RFU, ABCC4 / Fold change vs veh, ABCC4 / RFU, LOC101060439 /// RAP1B / Fold change vs veh, LOC101060439 /// RAP1B / RFU, RFX7 / Fold change vs veh, RFX7 / RFU, GTPBP10 / Fold change vs veh, GTPBP10 / RFU, CNEP1R1 / Fold change vs veh, CNEP1R1 / RFU, BIVM-ERCC5 /// ERCC5 / Fold change vs veh, BIVM-ERCC5 /// ERCC5 / RFU, ILF3 / Fold change vs veh, ILF3 / RFU 11762660_at / Fold change /veh 11762660_at / RFU VCAN (11757783_s_at) / Fold change /veh VCAN (11757783_s_at) / RFU DDX43 (11728927_at) / Fold change /veh DDX43 (11728927_at) / RFU KRT8 (11758188_x_at) / Fold change /veh KRT8 (11758188_x_at) / RFU NKD1 (11759106_at) / Fold change /veh NKD1 (11759106_at) / RFU SRD5A1 (11742802_a_at) / Fold change /veh SRD5A1 (11742802_a_at) / RFU TPSAB1 /// TPSB2 (11721975_s_at) / Fold change /veh TPSAB1 /// TPSB2 (11721975_s_at) / RFU GSTM3 (11746129_a_at) / Fold change /veh GSTM3 (11746129_a_at) / RFU IL23R (11737362_x_at) / Fold change /veh IL23R (11737362_x_at) / RFU TMEM51 (11727254_a_at) / Fold change /veh TMEM51 (11727254_a_at) / RFU PIWIL2 (11732686_x_at) / Fold change /veh PIWIL2 (11732686_x_at) / RFU ORM1 (11744905_x_at) / Fold change /veh ORM1 (11744905_x_at) / RFU CCDC152 (11743942_at) / Fold change /veh CCDC152 (11743942_at) / RFU ECM1 (11717891_a_at) / Fold change /veh ECM1 (11717891_a_at) / RFU IL23R (11748794_a_at) / Fold change /veh IL23R (11748794_a_at) / RFU TNFAIP8L3 (11732012_x_at) / Fold change /veh TNFAIP8L3 (11732012_x_at) / RFU MBOAT4 (11741988_at) / Fold change /veh MBOAT4 (11741988_at) / RFU 11764193_at / Fold change /veh 11764193_at / RFU TMEM53 (11763286_at) / Fold change /veh TMEM53 (11763286_at) / RFU MAGEB2 (11727129_at) / Fold change /veh MAGEB2 (11727129_at) / RFU TMEM200A (11744735_a_at) / Fold change /veh TMEM200A (11744735_a_at) / RFU CCDC152 (11751479_a_at) / Fold change /veh CCDC152 (11751479_a_at) / RFU FAM211A (11726209_a_at) / Fold change /veh FAM211A (11726209_a_at) / RFU RGS16 (11746705_a_at) / Fold change /veh RGS16 (11746705_a_at) / RFU VCAN (11755009_s_at) / Fold change /veh VCAN (11755009_s_at) / RFU RHOB (11743442_s_at) / Fold change /veh RHOB (11743442_s_at) / RFU RGS16 (11720943_a_at) / Fold change /veh RGS16 (11720943_a_at) / RFU RGS16 (11720944_at) / Fold change /veh RGS16 (11720944_at) / RFU, VPS4B / Fold change vs veh, VPS4B / RFU, CREB1 / Fold change vs veh, CREB1 / RFU, DNAJC13 / Fold change vs veh, DNAJC13 / RFU, GNAQ / Fold change vs veh, GNAQ / RFU, CDK5R1 / Fold change vs veh, CDK5R1 / RFU, ZRANB3 / Fold change vs veh, ZRANB3 / RFU, CUL4A / Fold change vs veh, CUL4A / RFU, CCNY / Fold change vs veh, CCNY / RFU, UFL1 / Fold change vs veh, UFL1 / RFU, COG3 / Fold change vs veh, COG3 / RFU, DIAPH2 / Fold change vs veh, DIAPH2 / RFU, SKA2 / Fold change vs veh, SKA2 / RFU, AFF3 / Fold change vs veh, AFF3 / RFU, LMF1 / Fold change vs veh, LMF1 / RFU, IPO11 / Fold change vs veh, IPO11 / RFU, DFFB / Fold change vs veh, DFFB / RFU, FOXP1 / Fold change vs veh, FOXP1 / RFU, CARD8 / Fold change vs veh, CARD8 / RFU, STRN3 / Fold change vs veh, STRN3 / RFU, ADK / Fold change vs veh, ADK / RFU, RASSF2 / Fold change vs veh, RASSF2 / RFU, WIPF1 / Fold change vs veh, WIPF1 / RFU, LARP1B / Fold change vs veh, LARP1B / RFU, RASA1 / Fold change vs veh, RASA1 / RFU, RB1 / Fold change vs veh, RB1 / RFU, PPFIA1 / Fold change vs veh, PPFIA1 / RFU, MAT2A / Fold change vs veh, MAT2A / RFU, CCT5 / Fold change vs veh, CCT5 / RFU, WDR92 / Fold change vs veh, WDR92 / RFU, CUX1 / Fold change vs veh, CUX1 / RFU, TTC7A / Fold change vs veh, TTC7A / RFU, TMEM135 / Fold change vs veh, TMEM135 / RFU, DEPTOR / Fold change vs veh, DEPTOR / RFU, CPM / Fold change vs veh, CPM / RFU, DNAJB6 / Fold change vs veh, DNAJB6 / RFU, CACNA2D3 / Fold change vs veh, CACNA2D3 / RFU, DTX4 / Fold change vs veh, DTX4 / RFU, TFCP2 / Fold change vs veh, TFCP2 / RFU, GMCL1 /// GMCL1P1 / Fold change vs veh, GMCL1 /// GMCL1P1 / RFU, AEBP2 / Fold change vs veh, AEBP2 / RFU, SNHG1 /// SNORD22 /// SNORD25 /// SNORD26 /// SNORD27 /// SNORD28 /// SNORD29 /// SNORD31 / Fold change vs veh, SNHG1 /// SNORD22 /// SNORD25 /// SNORD26 /// SNORD27 /// SNORD28 /// SNORD29 /// SNORD31 / Fold change (Aza/veh), C12orf56 (ProbeSet 11735607_a_at) / Fold change (ACY-1035/veh), C12orf56 (ProbeSet 11735607_a_at) / Fold change (Aza/veh), FGFR1OP (ProbeSet 11751329_s_at) / Fold change (ACY-1035/veh), FGFR1OP (ProbeSet 11751329_s_at) / Fold change (Aza/veh), VPS36 (ProbeSet 11739960_a_at) / Fold change (ACY-1035/veh), VPS36 (ProbeSet 11739960_a_at) / RFU SYPL1 (11715823_x_at) / Fold change /veh SYPL1 (11715823_x_at) / RFU IGFBP7 (11715501_s_at) / Fold change /veh IGFBP7 (11715501_s_at) / RFU REEP3 (11722064_at) / Fold change /veh REEP3 (11722064_at) / RFU IGLL1 (11728026_x_at) / Fold change /veh IGLL1 (11728026_x_at): dose or concentration left out as unconfirmed
Settings: MV-4-11 cells, 48 hours

Structure (SMILES): Nc1ccc(-c2cccs2)cc1NC(=O)c1ccc2c(c1)cc(C1CC1)n2CCN1CCOCC1 [ACY-1035]
- Fold change /veh LINC00158 (11744669_a_at): 1.11
